The text below walks through data of ChEMBL document CHEMBL1146403, “Three new cryptophycins from Nostoc sp. GSV 224” (J Nat Prod, 1997).

Holding throughout (assay type): functional, cell-based
Experiment [1] has as its system LoVo. Put plainly: Cytotoxicity against human LoVo cells.
The subject of experiment [2] is SK-OV-3. Put plainly: Cytotoxicity against human SKOV3 cells.
The subject of experiment [3] is KB. The experiment in a line: Cytotoxicity against human KB cells.

Each structure is given as a SMILES string.

On to `COc1ccc(C[C@H]2NC(=O)/C=C/C[C@@H]([C@H](C)/C=C/c3ccccc3)OC(=O)[C@H](CC(C)C)OC(=O)[C@H](C)CNC2=O)cc1Cl` [CRYPTOPHYCIN 3], for which the IC50 in experiment [1], in experiment [2] and in experiment [3] was 1.9 nM throughout.

As to `COc1c(Cl)cc(C[C@H]2NC(=O)/C=C/C[C@@H]([C@H](C)/C=C/c3ccccc3)OC(=O)[C@H](CC(C)C)OC(=O)[C@H](C)CNC2=O)cc1Cl` [CRYPTOPHYCIN 175], the IC50 in experiment [1], in experiment [2] and in experiment [3] was 100 nM in each case.

As for `COc1ccc(C[C@H]2NC(=O)/C=C/C[C@@H]([C@H](C)[C@H]3O[C@@H]3c3ccccc3)OC(=O)[C@H](CC(C)C)OC(=O)[C@H](C)CNC2=O)cc1Cl` [CRYPTOPHYCIN A], the IC50 in experiment [1], in experiment [2] and in experiment [3] was 0.0092 nM in each case.

With `COc1ccc(C[C@@H]2NC(=O)/C=C/C[C@@H]([C@H](C)/C=C/c3ccccc3)OC(=O)[C@H](CC(C)C)OC(=O)[C@H](C)CNC2=O)cc1Cl` [CRYPTOPHYCIN 46], the IC50 in experiment [1], in experiment [2] and in experiment [3] was 750 nM each time.

On to `CC(C)C[C@@H]1OC(=O)CCNC(=O)[C@@H](Cc2ccc(O)c(Cl)c2)NC(=O)/C=C/C[C@@H]([C@H](C)[C@H]2O[C@@H]2c2ccccc2)OC1=O` [CRYPTOPHYCIN 176], for which the IC50 in experiment [1], in experiment [2] and in experiment [3] was 1.3 nM throughout.

As usually defined, the IC50 is the concentration needed to halve the response being measured.
